{"source": "patent US11607407B2", "about": "“Dermal pharmaceutical compositions of 1-methyl-2′,6′-pipecoloxylidide and method of use” (priority 2010, dated 2023)", "key": {"[1]": {"experiment": "Effect of formulation pH on flux, Franz-diffusion cell, nylon membrane", "format": "in vitro ADME", "conditions": "for Total flux: Mepivacaine 10% w/w, HPMC K4M 3% gel", "experimental": "The influence of pH on the permeability of mepivacaine HCl from a variety of gel dosage forms was evaluated. The in-vitro drug release from gel formulations was studied across the Nylon 6, 6 membrane (0.22 μm) using Franz-diffusion cell with effective surface area of 3.14 cm^2 and receptor cell volume of 18 mL. The receptor compartment was filled with PBS pH 6.8 and maintained at 37±0.5° C. with constant magnetic stirring. 0.3-0.5 gm of gel was placed on the donor compartment. The samples (1 mL) were collected from the receptor compartment (dilutions made if required) at predetermined time interval for a period of 6-8 h and replaced by equal volume of fresh receptor solution to maintain constant volume. The amount of drug in the samples was assayed spectrophotometrically at 263 nm against appropriate blank. Studies were carried using HPMC K4M 3% as gelling agent with or without containing carvone (0.5%) as a penetration enhancer, so as to assess the effects of pH per se and pH in the presence of penetration enhancers. When Carbopol 3% was used as gelling agent, it gets precipitated out at pH below 5. HPMC gel formulations at pH 8.5 result in precipitation of mepivacaine from the gel. […] The maximum flux was obtained at pH 7.5."}, "[2]": {"tested_on": "postherpetic neuralgia", "conditions": "Sindrup and Jensen; cited from earlier work"}, "[3]": {"tested_on": "rat sciatic nerve", "conditions": "cited from earlier work"}, "[4]": {"tested_on": "combined HIV viral envelope protein (gp120) and NRTI model of painful HIV-associated peripheral neuropathy", "experiment": "Mechanical allodynia, zalcitabine plus gp120 model", "format": "in vivo, rat", "conditions": "for mechanical allodynia, difference from control: p ≤0.05", "source_text": "(§1) This study evaluated the effects of topical mepivacaine in DMSO painful HIV-associated peripheral neuropathy. HIV peripheral neuropathy in the rat was induced by sciatic nerve exposure to zalcitabine plus gp120.\n(§2) Under anesthesia, the left sciatic nerve of male rats was isolated by blunt dissection of the biceps, without damaging the perineurium. The HIV-1 viral envelope protein, gp120 was embedded in a carrier matrix and delivered directly to the sciatic nerve. The muscular layer was closed using 3-0 silk and the skin sealed with veterinarian-grade cyanoacrylate. Rats received intravenous tail injection of zalcitabine.\n(§3) A gauze pad was saturated with either mepivacaine in DMSO (vehicle) or vehicle alone and secured to the left plantar hind paw for 5 min. Rats were immediately tested after removal of the pad. Rats were then tested again at 5, 10 and 15 minutes after removal of the pad. Mepivacaine was tested at various concentrations. The treatment assignment was masked. A period of 48 hrs was allowed between retesting of the rats. The continued presence of hyperalgesia in the rats was confirmed by pre-drug application baseline testing on each test day.\n(§4) Plantar hind paw response to noxious heat and pressure application was evaluated before and one week following sciatic nerve surgery to confirm onset of hyperalgesia following gp120 administration. Following 15-20 min acclimation in the test chamber, a thermal heat stimulus was aimed at the mid-plantar hind paw as rats stand on a glass surface. The latency to a withdrawal response was recoded electronically. The stimulus intensity was adjusted to result in mean pre-surgical baseline latencies of approximately 12 seconds. Each hind paw was tested once to obtain a hind paw withdrawal latency. Mechanical allodynia was assessed by application of increasing pressure (32 g/sec) to the plantar hind paw over time. The withdrawal threshold (measured in grams) was reached when the rat withdrew its paw from the apparatus. The pre-surgical withdrawal threshold of naïve rats was about 175 g. […]"}, "[5]": {"conditions": "in vivo; cited from earlier work"}, "[6]": {"experiment": "Solubility of mepivacaine base in formulation solvents", "format": "physicochemical", "conditions": "2.5 g in 2.5 g of propylene glycol", "source_text": "2.5 g Mepivacaine base was suspended in 2.5 g of propylene glycol."}, "[7]": {"tested_on": "gp120 model of painful HIV-associated peripheral neuropathy", "experiment": "Thermal hyperalgesia (hind paw withdrawal latency), gp120 model", "format": "in vivo, rat", "conditions": "for thermal hyperalgesia, difference from control: p ≤0.05", "source_text": "(§5) This study evaluated the effects of topical mepivacaine in DMSO painful HIV-associated peripheral neuropathy. HIV peripheral neuropathy in the rat was induced by sciatic nerve exposure to gp120.\nas §2, with “cyanoacrylate.” for “cyanoacrylate. Rats received intravenous tail injection of zalcitabine.”\nas §3\n(§6) Plantar hind paw response to noxious heat and pressure application was evaluated before and one week following sciatic nerve surgery to confirm onset of hyperalgesia following gp120 administration. Following 15-20 min acclimation in the test chamber, a thermal heat stimulus was aimed at the mid-plantar hind paw as rats stand on a glass surface. The latency to a withdrawal response was recoded electronically. The stimulus intensity was adjusted to result in mean pre-surgical baseline latencies of approximately 12 seconds. Each hind paw was tested once to obtain a hind paw withdrawal latency. Mechanical allodynia was assessed by application of increasing pressure (32 g/sec) to the plantar hind paw over time. The withdrawal threshold (measured in grams) was reached when the rat withdrew its paw from the apparatus. The pre-surgical withdrawal threshold of naïve rats was about 175 g. Each hind paw was tested once to obtain a hind paw withdrawal threshold. Antinociception, or analgesia, was defined quantally as an increase in response over baseline.\n(§7) Statistical analysis for thermal hyperalgesia and mechanical allodynia were performed and statistical significance was declared if the two-sided p-value was ≤0.05. All computations were performed using SigmaStat™ for Windows™, Version 3.5."}, "[8]": {"tested_on": "combined HIV viral envelope protein (gp120) and NRTI model of painful HIV-associated peripheral neuropathy", "experiment": "Thermal hyperalgesia, zalcitabine plus gp120 model", "format": "in vivo, rat", "conditions": "for thermal hyperalgesia, difference from control: p ≤0.05", "source_text": "as §1, §2, §3, §4"}, "[9]": {"conditions": "cited from earlier work"}, "[10]": {"conditions": "in vivo; cited from earlier work", "remark": "listed apart in the source"}, "[11]": {"tested_on": "tail-flick model", "experiment": "Tail-flick assay", "format": "in vivo, mice", "conditions": "for tail-flick latency, difference from control: p ≤0.05", "experimental": "This study evaluated the effects of topical in DMSO mepivacaine in the tail-flick model.\nMale mice were maintained on a 12-h light/dark cycle with food and water available ad libitum. Mice were housed in groups of five until testing\nDrugs were given topically in DMSO (vehicle) on the tail by immersion of the tail in treatment solution for 5 minutes. Tail-flick latencies were then determined on the region of the tail immersed in the drug, unless otherwise stated. Mice were immediately tested after removal of the tail from the treatment solution and retested at 5 and 10 minutes. Mepivacaine was tested at various concentrations. The treatment assignment was masked.\nAnalgesia was assessed with the tail-flick assay. Responses were measured by exposing the distal part of the tail to a thermal stimulus, and the latency of exposure was determined. The tail flick latency is the time interval between onset of the heat stimulus and withdrawal of the tail the thermal stimulus. Baseline latencies ranged from 2 to 3 s. Testing was performed immediately after termination of topical administration into the tail and at 5 and 10 minutes thereafter. Antinociception, or analgesia, was defined quantally as an increase in response over baseline.\nStatistical analysis was performed and statistical significance was declared if the two-sided p-value was ≤0.05. All computations were performed using SigmaStat™ for Windows™, Version 3.5."}, "[12]": {"tested_on": "gp120 model of painful HIV-associated peripheral neuropathy", "experiment": "Mechanical allodynia (hind paw withdrawal threshold), gp120 model", "format": "in vivo, rat", "conditions": "for mechanical allodynia, difference from control: p ≤0.05", "source_text": "as §5\nas §2, with “cyanoacrylate.” for “cyanoacrylate. Rats received intravenous tail injection of zalcitabine.”\nas §3, §6, §7"}, "[13]": {"tested_on": "isolated dorsal root ganglion neurons from chick embryos", "conditions": "cited from earlier work"}, "[14]": {"conditions": "topical in DMSO, pad on hind paw 5 min"}}, "note": "Where two headings read alike, the source gives them in different places.", "data": [{"smiles": "Cc1cccc(C)c1NC(=O)C1CCCCN1C.Cl", "note": "(racemic) [mepivacaine hydrochloride, 2-piperidinecarboxamide, N(2,6-dimethylphenyl)-1-methyl-, monohydrochloride]", "values": [{"measurement": "formulation pH at which the maximum flux was obtained", "setting": "[1]; HPMC gels pH 4.5-7.5", "value": 7.5}]}, {"smiles": "COc1cc(CNC(=O)CCCC/C=C/C(C)C)ccc1O", "note": "[topical capsaicin, capsaicin]", "values": [{"measurement": "NNT values in postherpetic neuralgia", "setting": "[2]", "value": 5.3}]}, {"smiles": "CCCCN1CCCCC1C(=O)Nc1c(C)cccc1C", "note": "(stereo not drawn) [bupivacaine]", "values": [{"measurement": "neuronal damage in rat sciatic nerve", "setting": "[3]; 0.75% (23.1 mM)", "value": "do not"}]}, {"smiles": "Cc1cccc(C)c1NC(=O)C1CCCCN1C", "note": "(stereo not drawn) [Mepivacaine, 1-methyl-2′,6′-pipecoloxylidide]", "values": [{"measurement": "mechanical allodynia, difference from control", "setting": "[4]; 2 mg/mL", "value": "significantly different from control"}, {"measurement": "mechanical allodynia, difference from control", "setting": "[4]; 4 mg/mL", "value": "significantly different from control"}, {"measurement": "antinociceptive effects for mechanical allodynia", "setting": "[4]; [14]", "value": "short lived and variable antinociceptive effects"}, {"measurement": "irritation or tissue damage", "setting": "[5]", "value": "does not ordinarily produce irritation or tissue damage"}, {"measurement": "methemoglobinemia", "setting": "[5]", "value": "does not cause methemoglobinemia"}, {"measurement": "solubility in propylene glycol", "setting": "[6]", "value": "not sufficiently soluble"}, {"measurement": "thermal hyperalgesia, difference from control", "setting": "[7]; 2 mg/mL", "value": "significantly different from control"}, {"measurement": "thermal hyperalgesia, difference from control", "setting": "[7]; 4 mg/mL", "value": "significantly different from control"}, {"measurement": "thermal hyperalgesia, difference from control", "setting": "[7]; 8 mg/mL", "value": "significantly different from control"}, {"measurement": "antinociceptive effects for thermal hyperalgesia", "setting": "[7]; [14]", "value": "short lived and variable antinociceptive effects"}, {"measurement": "thermal hyperalgesia, difference from control", "setting": "[8]; 2 mg/mL", "value": "significantly different from control"}, {"measurement": "thermal hyperalgesia, difference from control", "setting": "[8]; 4 mg/mL", "value": "significantly different from control"}, {"measurement": "antinociceptive effects, section Thermal Hyperalgesia (text says mechanical allodynia)", "setting": "[8]; [14]", "value": "short lived and variable antinociceptive effects"}, {"measurement": "solubility in EtOH", "setting": "[9]", "value": 40, "unit": "g/100 ml"}, {"measurement": "administered dose excreted into the bile as metabolites", "setting": "[10]", "value": "over 50%"}, {"measurement": "bound to plasma proteins", "setting": "[10]", "value": "approximately 75%"}, {"measurement": "excreted unchanged in the urine", "setting": "[10]", "value": "less than 10%"}, {"measurement": "tail-flick latency, difference from control", "setting": "[11]; 4 mg/mL", "value": "significantly different from control"}, {"measurement": "tail-flick latency, difference from control", "setting": "[11]; 8 mg/mL", "value": "significantly different from control"}, {"measurement": "analgesia in tail-flick assay", "setting": "[11]; tail immersed 5 minutes in DMSO solution", "value": "short lived and variable analgesia"}, {"measurement": "mechanical allodynia, difference from control", "setting": "[12]; 2 mg/mL in DMSO", "value": "significantly different from control"}, {"measurement": "mechanical allodynia, difference from control", "setting": "[12]; 4 mg/mL in DMSO", "value": "significantly different from control"}, {"measurement": "mechanical allodynia, difference from control", "setting": "[12]; 8 mg/mL in DMSO", "value": "significantly different from control"}, {"measurement": "antinociceptive effects for mechanical allodynia", "setting": "[12]; [14]", "value": "short lived and variable antinociceptive effects"}, {"measurement": "Total flux", "setting": "[1]; carvone 0.5% w/w, pH 4.5", "value": 0.4251, "unit": "mg/cm^2/hr"}, {"measurement": "Total flux", "setting": "[1]; carvone 0.5% w/w, pH 5.5", "value": 0.5847, "unit": "mg/cm^2/hr"}, {"measurement": "Total flux", "setting": "[1]; carvone 0.5% w/w, pH 6.8", "value": 0.7245, "unit": "mg/cm^2/hr"}, {"measurement": "Total flux", "setting": "[1]; carvone 0.5% w/w, pH 7.5", "value": 0.8035, "unit": "mg/cm^2/hr"}, {"measurement": "Total flux", "setting": "[1]; no carvone, pH 4.5", "value": 0.4095, "unit": "mg/cm^2/hr"}, {"measurement": "Total flux", "setting": "[1]; no carvone, pH 5.5", "value": 0.6000, "unit": "mg/cm^2/hr"}, {"measurement": "Total flux", "setting": "[1]; no carvone, pH 6.8", "value": 0.7531, "unit": "mg/cm^2/hr"}, {"measurement": "Total flux", "setting": "[1]; no carvone, pH 7.5", "value": 0.7442, "unit": "mg/cm^2/hr"}, {"measurement": "IC50 in the growth cone collapse assay, rank among lidocaine, bupivacaine, mepivacaine, ropivacaine", "setting": "[13]", "value": "highest"}]}, {"smiles": "COc1ccc2c3c1O[C@H]1C(=O)CC[C@@]4(O)[C@@H](C2)N(C)CC[C@]314", "note": "[oxycodone]", "values": [{"measurement": "NNT values in postherpetic neuralgia", "setting": "[2]", "value": 2.5}]}, {"smiles": "CCN(CC)CC(=O)Nc1c(C)cccc1C", "note": "[lidocaine]", "values": [{"measurement": "neuronal damage in rat sciatic nerve", "setting": "[3]; 80 mM (2.17%)", "value": "induced neuronal damage"}, {"measurement": "IC50 in the growth cone collapse assay, rank among lidocaine, bupivacaine, mepivacaine, ropivacaine", "setting": "[13]", "value": "lowest"}]}]}
